Data reported in patent US7960407B2, “Crystal forms of an imidazole derivative” (Requalia Pharma Inc., priority 2006, dated 2011).

Assays:
[1] = solid-state stability of the crystal forms; assay type: physicochemical; conditions: qualitative comparison of the forms identified
[2] = hygroscopicity of the crystal form; assay type: physicochemical; conditions: solid form, qualitative

SMILES | stability of the crystal form [1] | also measured
CCc1nc2c(C)nc(C)cc2n1-c1ccc(CCNC(=O)NS(=O)(=O)c2ccc(C)cc2)cc1 [Crystal Form C, N-[({2-[4-(2-Ethyl-4,6-dimethyl-1H-imidazo[4,5-c]pyridin-1-yl)phenyl]ethyl}amino)carbonyl]-4-methylbenzenesulfonamide] | less stable | stability of the crystal form ([1]; listed as C): (metastable)
CCc1nc2c(C)nc(C)cc2n1-c1ccc(CCNC(=O)NS(=O)(=O)c2ccc(C)cc2)cc1 [Crystal Form D, N-[({2-[4-(2-Ethyl-4,6-dimethyl-1H-imidazo[4,5-c]pyridin-1-yl)phenyl]ethyl}amino)carbonyl]-4-methylbenzenesulfonamide] | less stable | –
CCc1nc2c(C)nc(C)cc2n1-c1ccc(CCNC(=O)NS(=O)(=O)c2ccc(C)cc2)cc1 [Crystal Form G, N-[({2-[4-(2-Ethyl-4,6-dimethyl-1H-imidazo[4,5-c]pyridin-1-yl)phenyl]ethyl}amino)carbonyl]-4-methylbenzenesulfonamide] | less stable | –
CCc1nc2c(C)nc(C)cc2n1-c1ccc(CCNC(=O)NS(=O)(=O)c2ccc(C)cc2)cc1 [Example 2, 2-ETHYL-4,6-DI METHYL-1-(4-{2-[({[(4-METHYLPHENYL)SULFONYL]AMINO}CARBONYL)AMINO]ETHYL}PHENYL)-1H-IMIDAZO[4,5-c]PYRIDINE, reference compound] | – | stability of the crystal form ([1]; listed as N-[({2-[4-(2-Ethyl-4,6-dimethyl-1H-imidazo[4,5-c]pyridin-1-yl)phenyl]ethyl}amino): unstable

The next lines start with results.

stability of the crystal form [1] | SMILES | also measured
most stable | CCc1nc2c(C)nc(C)cc2n1-c1ccc(CCNC(=O)NS(=O)(=O)c2ccc(C)cc2)cc1 [Polymorph Form A, N-[({2-[4-(2-Ethyl-4,6-dimethyl-1H-imidazo[4,5-c]pyridin-1-yl)phenyl]ethyl}amino)carbonyl]-4-methylbenzenesulfonamide] | hygroscopicity [2]: non-hygroscopic
stable | CCc1nc2c(C)nc(C)cc2n1-c1ccc(CCNC(=O)NS(=O)(=O)c2ccc(C)cc2)cc1 [Polymorph Form B, N-[({2-[4-(2-Ethyl-4,6-dimethyl-1H-imidazo[4,5-c]pyridin-1-yl)phenyl]ethyl}amino)carbonyl]-4-methylbenzenesulfonamide] | –
